# Laboratory results taken from ChEMBL document CHEMBL1201862, “PubChem BioAssay data set” (2004).
# Activity calls are given as the source filed them.
# Experiments:
# [1] = P. falciparum Dd2 growth inhibitors, dose response, SYBR Green, cherry-picked samples (AID 1159567); assay type: functional, cell-based
# Fatty acid synthase [2] = molecular target: T1, Fatty acid synthase (Homo sapiens, UniProt P49327); assay: inhibition of human FAS-TE enzyme activity – biochemical, endpoint fluorescence intensity, uHTS hits, dose response (AID 624327); assay type: functional;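 note: fluorescence from hydrolysis of an O-methyl fluorescein acyl ester substrate by the enzyme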
# Fatty acid synthase [3] = molecular target: T1, Fatty acid synthase; assay: inhibition of human FAS-TE enzyme activity – biochemical, kinetic fluorescence intensity, dose response (AID 624326); assay type: functional;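 note: rate of fluorescence rise from hydrolysis of a fluorogenic O-methyl fluorescein ester substrate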
# [4] = molecular target: T2, Calpain-2 catalytic subunit (Sus scrofa, UniProt P43367); assay: m-calpain protease blockers, concentration series – biochemical, fluorogenic peptide substrate, dose response (AID 1420); assay type: functional
# T2 sequence (P43367 whole entry): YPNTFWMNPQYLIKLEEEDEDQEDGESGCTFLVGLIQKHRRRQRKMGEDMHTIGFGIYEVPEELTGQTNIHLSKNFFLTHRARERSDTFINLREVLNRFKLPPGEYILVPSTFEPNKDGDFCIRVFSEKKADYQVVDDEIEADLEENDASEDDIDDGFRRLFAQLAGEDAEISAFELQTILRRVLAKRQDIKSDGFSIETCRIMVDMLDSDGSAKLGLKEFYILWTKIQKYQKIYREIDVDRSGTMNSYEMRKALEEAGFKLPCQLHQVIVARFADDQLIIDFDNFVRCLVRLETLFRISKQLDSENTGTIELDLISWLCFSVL
# cells [5] = assay type: functional, cell-based
# cells [6] = assay type: functional, cell-based; remark: listed apart in the source
# [7] = Luminescence Cell-Based Dose Response HTS to Identify Activators of Luciferase Translation or Activity in H4 […] Cells. [Related pubchem assays: 1829 (Project Summary), 1814 (Primary HTS)]; assay type: functional
# H4 = assay: Luminescence Cell-Based Dose Response HTS to Identify Activators of 5'UTR Stem-Loop Driven Prion Protein mRNA Translation in H4 Neuroglioblastoma Cells. [Related pubchem assays: 1829 (Project Summary), 1814 (Primary HTS)]; assay type: functional; conditions: Homo sapiens
# [8] = luciferase reporter signal suppression in cells – H4 neuroglioma cells, luminescence, dose response (AID 1990); assay type: functional, cell-based
# [9] = Luminescence Cell-Based Dose Response HTS to Identify Inhibitors of 5'UTR Stem-Loop Driven Prion Protein mRNA Translation in H4 Neuroglioblastoma Cells. [Related pubchem assays: 1827 (Project Summary), 1813 (Primary HTS)]; assay type: functional
# [10] = alpha-synuclein stem-loop luciferase translation blockers – H4 neuroglioma cells, luminescence, confirmation (AID 1988); assay type: functional, cell-based
# Vero = assay: cells; assay type: functional; conditions: Chlorocebus sabaeus
# [11] = viability of uninfected HEp-2 cells – cell-based, HTS, cytotoxicity control for RSV inhibitor project, dose response (AID 2410); assay type: functional; conditions: human respiratory syncytial virus
# [12] = loss of viability in HepG2 cells – cell-based, CellTiter-Glo, cherry-picked, cytotoxicity control for Shn3 inhibitor project, dose response (AID 624134); assay type: functional
# [13] = non-specific 3'UTR reporter inhibition in Clone20-Shn3RL – cell-based, Renilla luciferase, cherry-picked, counter-screen for Shn3 inhibitor project, dose response (AID 624133); assay type: functional
# [14] = reduction of Shn3 3'UTR-driven luciferase in osteoblasts – cell-based, Clone20 osteoblasts, firefly luciferase, cherry-picked, dose response (AID 624132); assay type: functional;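 note: firefly luciferase luminescence from reporter carrying the Shn3 3'UTR in osteoblasts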
# INS1 = assay: INS-1E survival protection against cytokine death – cell-based, luminescence, retest, dose response (AID 449756); assay type: functional; conditions: Rattus norvegicus;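 note: cell death triggered by IL-1 beta plus TNF-alpha plus IFN-gamma mixture; protective hits raise ATP signal compared with cytokine alone wells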
# Paired box protein Pax-8 = Paired box protein Pax-8 (Homo sapiens, UniProt Q06710); assay: PAX8 transcriptional activity inhibition in RMG-I – RMG-I cells, luciferase, cherry-pick, dose response (AID 687027); assay type: functional, cell-based;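 note: luciferase reporter driven by Pax8 target thyroperoxidase promoter measured by SteadyGlo luminescence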
# Cytochrome P450 1A2 = molecular target: T3, Cytochrome P450 1A2 (Homo sapiens, UniProt P05177);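 note: PubChem cytochrome P450 panel assay, CYP1A2 panel member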
# T3 sequence (P05177 whole entry): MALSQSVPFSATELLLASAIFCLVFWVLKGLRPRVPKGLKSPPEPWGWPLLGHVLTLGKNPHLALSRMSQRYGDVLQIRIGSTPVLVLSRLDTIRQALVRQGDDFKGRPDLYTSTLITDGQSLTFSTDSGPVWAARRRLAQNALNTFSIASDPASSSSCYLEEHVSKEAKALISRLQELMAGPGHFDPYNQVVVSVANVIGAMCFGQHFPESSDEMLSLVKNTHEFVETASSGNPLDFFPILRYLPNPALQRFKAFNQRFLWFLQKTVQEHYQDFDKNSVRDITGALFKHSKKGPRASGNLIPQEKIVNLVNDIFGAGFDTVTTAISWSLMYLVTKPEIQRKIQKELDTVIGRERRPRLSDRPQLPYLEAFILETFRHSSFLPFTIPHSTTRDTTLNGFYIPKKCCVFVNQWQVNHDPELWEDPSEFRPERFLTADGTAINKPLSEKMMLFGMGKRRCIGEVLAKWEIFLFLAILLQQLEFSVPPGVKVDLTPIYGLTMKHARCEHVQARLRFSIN
# T1 sequence (P49327 whole entry): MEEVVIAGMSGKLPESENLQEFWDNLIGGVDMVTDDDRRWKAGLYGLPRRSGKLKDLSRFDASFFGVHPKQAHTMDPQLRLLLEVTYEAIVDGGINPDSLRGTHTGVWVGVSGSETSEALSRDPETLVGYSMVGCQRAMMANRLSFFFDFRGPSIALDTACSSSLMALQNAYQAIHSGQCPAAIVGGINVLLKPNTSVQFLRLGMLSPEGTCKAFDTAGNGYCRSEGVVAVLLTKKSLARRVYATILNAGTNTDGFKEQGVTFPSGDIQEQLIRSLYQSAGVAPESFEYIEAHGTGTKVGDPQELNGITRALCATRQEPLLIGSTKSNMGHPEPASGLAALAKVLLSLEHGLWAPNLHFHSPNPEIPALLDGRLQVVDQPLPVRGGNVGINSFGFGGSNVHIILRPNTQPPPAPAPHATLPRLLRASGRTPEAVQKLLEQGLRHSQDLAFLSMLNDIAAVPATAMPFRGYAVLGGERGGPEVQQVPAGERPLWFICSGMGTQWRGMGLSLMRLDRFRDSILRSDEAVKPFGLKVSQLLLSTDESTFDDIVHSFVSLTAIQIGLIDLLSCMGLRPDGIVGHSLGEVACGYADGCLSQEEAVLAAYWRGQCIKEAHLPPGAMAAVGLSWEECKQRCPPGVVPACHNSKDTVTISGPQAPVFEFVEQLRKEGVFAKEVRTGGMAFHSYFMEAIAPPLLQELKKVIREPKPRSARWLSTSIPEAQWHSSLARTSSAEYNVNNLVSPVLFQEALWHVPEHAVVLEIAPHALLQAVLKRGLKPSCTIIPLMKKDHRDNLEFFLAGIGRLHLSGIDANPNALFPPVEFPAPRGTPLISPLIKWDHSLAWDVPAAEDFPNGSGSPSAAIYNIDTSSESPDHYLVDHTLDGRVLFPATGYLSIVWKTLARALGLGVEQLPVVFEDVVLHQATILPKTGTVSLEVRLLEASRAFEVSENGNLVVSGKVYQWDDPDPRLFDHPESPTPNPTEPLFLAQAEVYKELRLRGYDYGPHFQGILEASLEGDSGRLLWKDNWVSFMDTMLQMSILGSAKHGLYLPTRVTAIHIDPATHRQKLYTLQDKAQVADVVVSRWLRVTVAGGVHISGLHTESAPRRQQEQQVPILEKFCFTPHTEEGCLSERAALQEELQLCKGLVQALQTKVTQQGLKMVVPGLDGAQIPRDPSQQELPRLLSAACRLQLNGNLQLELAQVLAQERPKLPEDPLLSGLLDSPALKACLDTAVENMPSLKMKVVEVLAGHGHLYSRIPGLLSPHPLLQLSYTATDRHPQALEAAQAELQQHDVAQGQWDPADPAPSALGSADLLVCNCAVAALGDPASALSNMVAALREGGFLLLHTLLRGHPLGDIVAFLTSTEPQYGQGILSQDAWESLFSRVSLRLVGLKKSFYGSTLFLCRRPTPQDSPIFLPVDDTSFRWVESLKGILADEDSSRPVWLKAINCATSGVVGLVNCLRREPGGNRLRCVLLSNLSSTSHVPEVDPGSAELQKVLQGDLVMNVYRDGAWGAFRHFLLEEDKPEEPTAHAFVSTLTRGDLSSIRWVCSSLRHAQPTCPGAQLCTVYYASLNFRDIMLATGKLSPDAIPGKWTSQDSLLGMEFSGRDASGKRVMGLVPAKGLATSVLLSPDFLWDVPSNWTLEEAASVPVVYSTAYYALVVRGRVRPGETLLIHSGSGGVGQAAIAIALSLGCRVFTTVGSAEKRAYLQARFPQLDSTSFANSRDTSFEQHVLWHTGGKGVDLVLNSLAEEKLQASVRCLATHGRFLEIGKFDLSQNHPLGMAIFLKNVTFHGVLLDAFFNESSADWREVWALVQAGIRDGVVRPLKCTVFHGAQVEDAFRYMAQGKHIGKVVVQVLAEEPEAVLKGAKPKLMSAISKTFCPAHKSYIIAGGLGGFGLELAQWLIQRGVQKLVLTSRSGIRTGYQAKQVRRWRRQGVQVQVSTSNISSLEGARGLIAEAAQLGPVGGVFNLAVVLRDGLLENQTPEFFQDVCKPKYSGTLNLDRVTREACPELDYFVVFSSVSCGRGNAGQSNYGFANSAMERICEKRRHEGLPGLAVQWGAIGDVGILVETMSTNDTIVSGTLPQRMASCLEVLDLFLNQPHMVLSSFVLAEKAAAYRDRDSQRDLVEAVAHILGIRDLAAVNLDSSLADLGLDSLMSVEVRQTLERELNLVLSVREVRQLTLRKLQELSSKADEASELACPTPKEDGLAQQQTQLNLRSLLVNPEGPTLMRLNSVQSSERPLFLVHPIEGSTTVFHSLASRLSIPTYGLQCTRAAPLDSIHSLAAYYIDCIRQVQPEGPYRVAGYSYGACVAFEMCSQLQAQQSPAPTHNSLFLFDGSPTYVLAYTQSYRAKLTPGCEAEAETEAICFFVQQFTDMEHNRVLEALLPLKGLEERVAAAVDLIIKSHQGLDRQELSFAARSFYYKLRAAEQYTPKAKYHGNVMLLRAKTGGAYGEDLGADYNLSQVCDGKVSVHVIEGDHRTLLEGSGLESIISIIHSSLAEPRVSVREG
# Paired box protein Pax-8, sequence (Q06710 whole entry): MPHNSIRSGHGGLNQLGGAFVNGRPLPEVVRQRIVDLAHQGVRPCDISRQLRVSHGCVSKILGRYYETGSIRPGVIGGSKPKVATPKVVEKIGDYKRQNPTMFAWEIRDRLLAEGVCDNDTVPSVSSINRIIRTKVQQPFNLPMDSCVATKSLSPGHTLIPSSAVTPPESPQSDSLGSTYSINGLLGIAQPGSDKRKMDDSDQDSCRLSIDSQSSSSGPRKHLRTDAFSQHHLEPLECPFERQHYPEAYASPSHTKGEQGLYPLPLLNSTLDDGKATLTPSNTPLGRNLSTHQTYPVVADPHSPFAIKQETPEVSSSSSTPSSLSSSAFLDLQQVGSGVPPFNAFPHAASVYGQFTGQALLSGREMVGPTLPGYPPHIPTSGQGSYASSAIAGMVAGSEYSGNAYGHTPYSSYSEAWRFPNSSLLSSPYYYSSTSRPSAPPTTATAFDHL
compound,measurement,setting,value
O=C(c1ccccn1)N1CC[C@H]2[C@H](CO)Nc3ccc(-c4ccccc4)cc3[C@H]21,AC50,[1],12.4 µM (active)
COc1ccc2c3c(n(C)c2c1)[C@@H](CO)N(CC1CCCCC1)CC31CCN(C(=O)CN(C)C)CC1,AC50,[1],5.49 µM (active)
COC(=O)c1cc(C(=O)OCC(=O)NC2CCCCCCC2)cc([N+](=O)[O-])c1,IC50,Fatty acid synthase [2],7.09 µM (active)
same,IC50,Fatty acid synthase [3],8 µM (active)
Cc1ccccc1NC(=O)Cn1c(=O)n(Cc2ccccc2)c(=O)c2c(C)c(C)sc21,IC50,[4],15 µM (not active)
O=C(CCNC(=O)c1ccc([N+](=O)[O-])cc1)NCCC1=CCCCC1,IC50,Fatty acid synthase [2],3.75 µM (active)
same,IC50,Fatty acid synthase [3],3.4 µM (active)
Cc1ccccc1NC(=O)CN(C)S(=O)(=O)c1ccc(-c2ccc(O)nn2)s1,EC50,cells [5],> 350 µM (not active)
same,EC50,cells [6],> 350 µM (not active)
O=C(Nc1cnc2sccn2c1=O)c1ccccc1Cl,EC50,[7],0.199 µM (active)
same,EC50,H4,> 120 µM (not active)
CCCCCCCC1CC(=O)C=C(C)C1C(=O)OCC (configuration not stated),EC50,cells [5],> 350 µM (not active)
same,EC50,cells [6],> 350 µM (not active)
COc1ccc(N2CCN(C(=O)COc3ccc4c(C)c(C)c(=O)oc4c3C)CC2)cc1,EC50,cells [5],> 350 µM (not active)
same,EC50,cells [6],> 350 µM (not active)
O=C(NCc1ccc2c(c1)OCO2)c1ccc2c(c1)N(Cc1c(F)cccc1Cl)C(=O)CS2,IC50,Fatty acid synthase [2],10.3 µM (active)
same,IC50,Fatty acid synthase [3],6.15 µM (active)
COC(=O)c1c(C)n(Cc2ccccc2)c2ccc(O)cc12,EC50,[8],> 120 µM (not active)
same,EC50,[9],> 120 µM (not active)
same,EC50,[10],> 120 µM (not active)
CCOC(=O)c1c(NC(=O)CN2C(=O)NC3(CCC(C)CC3)C2=O)sc(C)c1-c1ccc(C)cc1 (configuration not stated),EC50,cells [5],> 350 µM (not active)
same,EC50,cells [6],49.6 µM (active)
c1ccc(OCc2nc(-c3ccncc3)no2)cc1,EC50,cells [5],> 350 µM (not active)
same,EC50,cells [6],> 350 µM (not active)
Nc1ccccc1Sc1ccc(C(F)(F)F)cc1[N+](=O)[O-],IC50,[4],2.55 µM (active)
CCOC(=O)/C(=C/c1ccc(OC(F)F)cc1)C1=Nn2c(nnc2-c2ccc(Cl)cc2)SC1,CC50,Vero,7.48 µM (active)
Cc1ccc(N(CCCCN2C(=O)c3ccccc3C2=O)C(=O)c2ccc(Cl)s2)cc1,IC50,[4],2.83 µM (not active)
same,CC50,[11],24.1 µM (active)
CN(C(=O)COC(=O)c1cc([N+](=O)[O-])ccc1Cl)c1ccccc1,IC50,Fatty acid synthase [2],9.59 µM (active)
same,IC50,Fatty acid synthase [3],7 µM (active)
C/N=C1/c2cc3cc(OC)ccc3n2CCN1Cc1ccccc1,AC50,[12],45.4 µM (active)
CCn1cnc2c1c(=O)n(CC(=O)Nc1ccc3c(c1)OC(F)(F)O3)c(=O)n2Cc1ccccc1,IC50,[4],< 0.4 µM (not active)
CC(C)N(C(=O)COC(=O)c1ccc(O)cc1)C(C)C,IC50,[4],18.7 µM (not active)
O=C1CC(c2ccccc2)Sc2nc3ccccc3n21 (configuration not stated),EC50,[7],15.4 µM (active)
same,EC50,H4,15.4 µM (active)
O=C(CN1C(=O)c2ccc([N+](=O)[O-])cc2C1=O)NCCC1=CCCCC1,IC50,Fatty acid synthase [2],20.9 µM (inactive)
same,IC50,Fatty acid synthase [3],15.4 µM (active)
O=C(/C=C/c1cc([N+](=O)[O-])ccc1OC(F)F)NCc1ccc(F)cc1,IC50,Fatty acid synthase [2],1.33 µM (active)
same,IC50,Fatty acid synthase [3],0.999 µM (active)
CC(C)Cn1c(N)c(C(=O)COC(=O)c2ccc(Cl)cc2)c(=O)n(C)c1=O,IC50,[4],2.21 µM (active)
Nc1nc(N)c2cc(CNc3ccc(Cl)c(Cl)c3)ccc2n1,AC50,[13],3.34 µM (active)
same,AC50,[12],1.21 µM (active)
same,AC50,[14],0.956 µM (active)
CC(C)C[C@H](NC(=O)c1[nH]cnc1C(=O)NCCCCCNC(=O)OC(C)(C)C)C(=O)OC(C)(C)C,IC50,[4],26.6 µM (not active)
CCN(CC)c1ccc(C(=O)NNC(=O)CCl)cc1,IC50,[4],9.84 µM (active)
CC(=O)c1ccc(NC(=O)C(C)OC(=O)/C=C/c2ccco2)cc1 (configuration not stated),AC50,[13],15.3 µM (active)
same,AC50,[12],> 70 µM (inactive)
same,AC50,[14],9.12 µM (active)
O=C(O)c1cccnc1SCc1ccccc1Cl,EC50,cells [5],> 350 µM (not active)
same,EC50,cells [6],> 350 µM (not active)
COc1ccc2c(c1)CCc1cc(C(=O)N3CCN(c4ccc(N5CCOCC5)nn4)CC3)sc1-2,EC50,[8],13.6 µM (active)
same,EC50,[9],> 120 µM (not active)
same,EC50,[10],> 120 µM (not active)
COc1ccc(-c2cc3nc(C)c(CCC(=O)NC(C)CCc4ccco4)c(C)n3n2)c(OC)c1 (configuration not stated),EC50,[8],> 120 µM (not active)
same,EC50,[9],> 120 µM (not active)
same,EC50,[10],> 120 µM (not active)
Cc1ccc(-c2[nH]ncc2/C=N/n2c(COc3ccccc3C)nc3ccccc3c2=O)cc1,IC50,[4],28 µM (not active)
same,AC50,INS1,6.28 µM (active)
C[C@H]1CN([C@@H](C)CO)C(=O)c2ccccc2-c2ccccc2CO[C@H]1CN(C)Cc1cccc(C(F)(F)F)c1,AC50,[1],4.48 µM (active)
Cc1cc(C(=O)Nc2ccc3c(c2)OCCO3)ccc1[N+](=O)[O-],EC50,[9],13.7 µM (active)
Cc1c(C(=O)N2CCOCC2)sc(NC(=O)CCl)c1C#N,CC50,Vero,22.3 µM (active)
COc1ccccc1NC(=O)COC(=O)C12CC3CC(CC(Cl)(C3)C1)C2,IC50,[4],13 µM (not active)
COc1ccc(CCNc2nncc(O)n2)cc1OC,EC50,cells [5],> 350 µM (not active)
same,EC50,cells [6],> 350 µM (not active)
C=C1CC(COc2ccc3c(C)c(Cl)c(=O)oc3c2)(c2ccccc2)OC1=O (configuration not stated),AC50,Paired box protein Pax-8,5.9 µM (active)
same,IC50,Fatty acid synthase [2],10.5 µM (active)
same,AC50,[13],9.25 µM (active)
same,AC50,[12],13.2 µM (active)
same,AC50,[14],4.82 µM (active)
same,IC50,Fatty acid synthase [3],12 µM (active)
c1coc(-c2nnc3n2C2(CCCC2)Cc2ccccc2-3)c1,EC50,[8],> 120 µM (not active)
same,EC50,[9],> 120 µM (not active)
same,EC50,[10],> 120 µM (not active)
O=C(Nc1ccccc1Cl)N1CCN(c2ccc3nnc(-c4ccc(F)cc4)n3n2)CC1,EC50,[8],13.4 µM (active)
same,EC50,[9],15.2 µM (active)
same,EC50,[10],> 120 µM (not active)
Cc1ccc(C2=NS(=O)(=O)N(C)C(C(=O)NC3CCCC3)=C2)cc1,EC50,cells [5],> 350 µM (not active)
same,EC50,cells [6],> 350 µM (not active)
O=C(O)c1cccc(N2CCCC2=O)c1,EC50,cells [5],> 350 µM (not active)
same,AC50,Cytochrome P450 1A2,14.1 µM (inconclusive)
same,EC50,cells [6],> 350 µM (not active)
O=[N+]([O-])c1cccc(/C=N\N=C2c3ccccc3-c3ccccc32)c1O,IC50,[4],< 0.4 µM (not active)
